Data reported in EP4501917A1, “3,4-DIHYDROQUINOXALINE-2-CARBOXIMIDE DERIVATIVE COMPOUND AND PHARMACEUTICAL COMPOSITION COMPRISING SAME FOR PREVENTING OR TREATING CANCER DISEASE” (Daegu-Gyeongbuk Medical Innovation Foundation, priority 2022, dated 2023).

What was measured:
HDAC8 [1] = target: T1, HDAC8 (Homo sapiens, UniProt Q9BY41); experiment: HDAC8 inhibitory activity analysis (in vitro), RFU analysis, HDAC Fluorogenic assay kit; assay type: biochemical
T1 construct: purchased BPS bioscience
T1 sequence (Q9BY41 1-377): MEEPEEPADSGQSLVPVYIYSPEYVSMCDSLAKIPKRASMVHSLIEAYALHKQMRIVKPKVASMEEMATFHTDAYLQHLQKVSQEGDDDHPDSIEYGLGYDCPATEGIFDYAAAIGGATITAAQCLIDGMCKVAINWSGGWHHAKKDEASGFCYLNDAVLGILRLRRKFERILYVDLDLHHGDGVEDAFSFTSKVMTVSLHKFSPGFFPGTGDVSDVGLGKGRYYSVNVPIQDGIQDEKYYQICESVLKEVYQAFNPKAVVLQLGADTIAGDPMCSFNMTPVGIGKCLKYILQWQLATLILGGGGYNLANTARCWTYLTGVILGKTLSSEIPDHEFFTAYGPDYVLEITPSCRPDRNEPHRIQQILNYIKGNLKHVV
Procedure: The compound of the Example was diluted to 1 mM (1% DMSO concentration) using DMSO to obtain a final concentration of 10 µM, and prepared by diluting 1/10 with assay buffer. In a 96-well black round-bottom plate, 5 µL of the diluted compound of the Example, 5 µL of the diluted HDAC substrate 2A, 5 µL of BSA (1 mg/mL), 5 µL of the HDAC8 enzyme diluted to an appropriate concentration, and 30 µL of assay buffer were added, and the enzyme reaction was performed at 37°C for 30 minutes. […] Afterwards, 50 µL of 2X HDAC developer was added to each well. After reacting for 15 minutes at room temperature, the fluorescence values at excitation wavelengths of 350-380 nm and emission wavelengths of 440-460 nm were measured using a microplate reader (Synergy Neo).

HDAC7 = target: T2, HDAC7 (Homo sapiens, UniProt Q8WUI4); experiment: Selective HDAC inhibition, HDAC Fluorogenic assay kit; assay type: biochemical; conditions: final concentration 10 µM; HDAC substrate 2A 200 µM; positive control (1% DMSO) set to 100; read-out: HDAC7 enzyme activity (%)
T2 construct: purchased BPS bioscience
T2 sequence (Q8WUI4 1-952): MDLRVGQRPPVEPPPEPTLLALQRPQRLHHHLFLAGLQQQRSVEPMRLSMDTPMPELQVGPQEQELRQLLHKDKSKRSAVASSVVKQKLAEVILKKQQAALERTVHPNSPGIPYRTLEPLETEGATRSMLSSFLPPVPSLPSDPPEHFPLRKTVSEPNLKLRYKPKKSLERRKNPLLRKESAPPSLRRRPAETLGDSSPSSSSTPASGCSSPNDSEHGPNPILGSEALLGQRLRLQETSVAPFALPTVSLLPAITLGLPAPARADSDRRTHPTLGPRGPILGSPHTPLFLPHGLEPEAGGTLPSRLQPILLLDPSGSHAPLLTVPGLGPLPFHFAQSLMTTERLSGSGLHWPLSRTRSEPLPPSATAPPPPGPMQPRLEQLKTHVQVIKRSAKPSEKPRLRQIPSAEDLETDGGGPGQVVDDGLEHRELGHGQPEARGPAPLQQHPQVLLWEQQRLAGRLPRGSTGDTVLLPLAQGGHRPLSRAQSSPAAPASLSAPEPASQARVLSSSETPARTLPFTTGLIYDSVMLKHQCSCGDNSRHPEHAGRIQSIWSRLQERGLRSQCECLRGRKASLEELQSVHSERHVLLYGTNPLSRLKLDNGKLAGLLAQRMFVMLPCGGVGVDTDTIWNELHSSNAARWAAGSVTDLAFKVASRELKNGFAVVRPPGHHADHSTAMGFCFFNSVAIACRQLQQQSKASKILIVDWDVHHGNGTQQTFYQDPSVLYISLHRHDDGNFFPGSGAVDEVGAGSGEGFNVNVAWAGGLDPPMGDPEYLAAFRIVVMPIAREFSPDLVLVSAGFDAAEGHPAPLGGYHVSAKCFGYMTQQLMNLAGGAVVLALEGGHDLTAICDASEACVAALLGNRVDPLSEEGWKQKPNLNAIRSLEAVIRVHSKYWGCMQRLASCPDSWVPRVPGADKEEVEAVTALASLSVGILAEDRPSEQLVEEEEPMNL
Procedure: (§2) For analysis, HDAC substrate 3 was diluted in buffer to a concentration of 200 µM and used in HDAC 1, 2, 3, 6, and 10 assays, HDAC substrate 2A was diluted in buffer to a concentration of 200 µM and used in HDAC 4, 7, 9, and 11 assays, HDAC substrate 2A was diluted in buffer to a concentration of 20 µM and used in HDAC 8 assays. For the HDAC 11 assay, a dedicated buffer included in the kit was used separately, and the same buffer was used for the remaining assays. The compound of the Example was diluted to 1 mM (1% DMSO concentration) using DMSO to obtain a final concentration of 10 µM, and prepared by diluting 1/10 with assay buffer. In a 96-well black round-bottom plate, 5 µL of the diluted compound of the Example, 5 µL of the diluted HDAC substrate, 5 µL of BSA (1 mg/ml), 5 µL of the HDAC enzyme diluted to the appropriate concentration, and 30 µL of assay buffer were added, and the enzyme reaction was performed at 37°C for 30 minutes. […] Afterwards, 50 µL of 2X HDAC developer was added to each well. After reacting for 15 minutes at room temperature, the fluorescence values at excitation wavelengths of 350-380 nm and emission wavelengths of 440-460 nm were measured using a microplate reader (Synergy Neo).

HDAC8 [2] = target: T1, HDAC8; experiment: as above; assay type: biochemical
Procedure: as §2

[3] = Body weight during drug administration, prostate cancer model; assay type: in vivo, nude mice; conditions: 50 mg/kg, during the drug administration period, PC-3 model, FIG. 5; result in words
Procedure: A prostate cancer model was established by subcutaneously transplanting PC-3 cell lines into nude mice, and the mice were divided into two groups (group 1: vehicle administration group (10% DSMO, 30% PEG400, 60% DW), group 2: 50 mg/kg Example 27 compound administration group). The drug was administered orally once a day for 12 times. To evaluate the therapeutic efficacy, tumors were […] before drug administration and on days 3, 6, 8, 10, 12, and 14 after drug administration, and tumor volumes were measured. Tumor volume (mm^3) was calculated as follows (tumor volume (mm^3) = (A X B^2)/2, where A = tumor long axis, B = tumor short axis), and the results are shown in FIG. 2.

Huh-7 cell lines = experiment: Liver cancer model, Huh-7 cell lines subcutaneously transplanted, tumor volume and weight; assay type: in vivo, nude mice; conditions: result in words
Procedure: (§1) In addition, a liver cancer model was established by subcutaneously transplanting Huh-7 cell lines into nude mice. After establishing the liver cancer model, the mice were divided into two groups (group 1: vehicle administration group, group 2: 50 mg/kg Example 27 compound administration group). The drug was administered once a day for 12 times. To evaluate therapeutic efficacy, tumor volume was measured before drug administration and on days 4, 7, 10, 13, and 15 after drug administration. Tumor volume (mm^3) was calculated as follows (tumor volume (mm^3) = (A X B^2)/2, where A = tumor long axis, B = tumor short axis). Body weight was measured before administration and on days 4, 7, 10, 13, and 15 after drug administration during the drug administration period. Tumor was excised on day 15 after drug treatment and body weight was measured.

[4] = Body weight during drug administration, liver cancer model; assay type: in vivo, nude mice; conditions: 50 mg/kg, during the drug administration period, Huh-7 model, FIG. 7D; result in words
Procedure: as §1

HDAC9 = HDAC9 (Homo sapiens, UniProt Q9UKV0); experiment: Selective HDAC inhibition, HDAC Fluorogenic assay kit; conditions: read-out: HDAC9 enzyme activity (%)
Chain of HDAC9 (Q9UKV0 whole entry): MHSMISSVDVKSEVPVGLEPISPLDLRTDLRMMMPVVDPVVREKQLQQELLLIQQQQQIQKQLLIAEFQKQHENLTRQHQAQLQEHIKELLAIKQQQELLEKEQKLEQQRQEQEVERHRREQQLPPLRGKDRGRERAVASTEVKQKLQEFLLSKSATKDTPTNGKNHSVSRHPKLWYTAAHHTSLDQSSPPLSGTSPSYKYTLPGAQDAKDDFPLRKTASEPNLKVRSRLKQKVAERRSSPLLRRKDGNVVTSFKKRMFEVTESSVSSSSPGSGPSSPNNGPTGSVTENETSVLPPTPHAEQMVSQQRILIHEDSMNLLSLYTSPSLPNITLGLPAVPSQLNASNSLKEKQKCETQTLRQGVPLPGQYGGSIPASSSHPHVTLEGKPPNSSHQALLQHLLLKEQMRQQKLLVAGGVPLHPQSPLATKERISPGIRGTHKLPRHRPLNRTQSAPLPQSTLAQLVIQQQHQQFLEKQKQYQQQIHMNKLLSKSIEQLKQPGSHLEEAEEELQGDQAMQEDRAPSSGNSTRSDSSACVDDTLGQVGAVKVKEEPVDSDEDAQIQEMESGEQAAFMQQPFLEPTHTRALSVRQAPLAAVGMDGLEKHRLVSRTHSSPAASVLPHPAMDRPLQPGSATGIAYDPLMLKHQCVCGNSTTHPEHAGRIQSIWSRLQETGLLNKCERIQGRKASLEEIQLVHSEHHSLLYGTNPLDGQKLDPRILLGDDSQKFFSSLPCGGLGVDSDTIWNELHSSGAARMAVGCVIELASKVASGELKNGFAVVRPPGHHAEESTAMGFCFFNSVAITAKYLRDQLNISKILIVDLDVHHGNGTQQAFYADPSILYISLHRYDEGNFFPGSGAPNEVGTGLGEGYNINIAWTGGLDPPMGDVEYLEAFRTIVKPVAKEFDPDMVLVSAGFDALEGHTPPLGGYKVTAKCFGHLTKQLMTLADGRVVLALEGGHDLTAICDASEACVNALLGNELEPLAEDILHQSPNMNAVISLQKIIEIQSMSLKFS
Procedure: as §2

HDAC11 = target: T3, HDAC11 (Homo sapiens, UniProt Q96DB2); experiment: as above; conditions: read-out: HDAC11 enzyme activity (%)
T3 sequence (Q96DB2 1-347): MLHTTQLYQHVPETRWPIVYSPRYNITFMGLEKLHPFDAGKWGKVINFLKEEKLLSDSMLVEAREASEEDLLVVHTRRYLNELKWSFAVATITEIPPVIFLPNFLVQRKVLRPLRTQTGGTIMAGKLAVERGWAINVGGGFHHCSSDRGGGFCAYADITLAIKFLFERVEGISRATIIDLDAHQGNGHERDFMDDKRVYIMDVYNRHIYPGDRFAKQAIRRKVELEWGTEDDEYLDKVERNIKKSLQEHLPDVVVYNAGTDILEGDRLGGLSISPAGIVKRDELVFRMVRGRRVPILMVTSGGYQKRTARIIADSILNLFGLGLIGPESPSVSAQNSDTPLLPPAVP
Procedure: as §2

RFU (%) (HDAC8 [1]; compound final concentration 10 µM, HDAC substrate 2A 20 µM, positive control (1% DMSO) set to 100, lower = more inhibition): 7.62% | remaining activity at 10 µM (HDAC7): 91.2% | remaining activity at 10 µM (HDAC8 [2]; final concentration 10 µM, HDAC substrate 2A 20 µM, positive control (1% DMSO) set to 100, read-out: HDAC8 enzyme activity (%)): 14.1% | remaining activity at 10 µM (HDAC9): 66.5% | remaining activity at 10 µM (HDAC11): 97.3%
SMILES: Cc1cc2nc(C(=O)NCCc3c[nH]c4ccc(O)cc34)c(=O)n(C[C@H](O)[C@H](O)[C@H](O)CO)c2cc1C [Example 27, N-(2-(5-hydroxy-1H-indol-3-yl)ethyl)-6,7-dimethyl-3-oxo-4-((2S,3S,4R)-2,3,4,5-tetrahydroxypentyl)-3,4-dihydroquinoxaline-2-carboxamide]
inhibitory activity against HDAC8 (HDAC8 [1]; result in words, summary of Table 2, 10 µM): inhibitory activity similar to TSA or SAHA | selective inhibitory effect on HDAC8 (HDAC8 [2]; result in words, HDAC8 versus HDAC1, 2, 3, 4, 6, 7, 9, 10, 11, summary of Table 3): selective and excellent inhibitory activity only against HDAC8 | body weight of the mice [3]: no rapid weight loss was confirmed | tumor volume (Huh-7 cell lines; 50 mg/kg once a day for 12 times, until day 15, **p<0.005 compared with vehicle, FIG. 7A): tumor growth inhibitory effect | tumor weight (Huh-7 cell lines; 50 mg/kg, tumor removed on day 15, ***p<0.0005 compared with vehicle, FIGS. 7B and 7C): tumor weight of the vehicle group was significantly higher | body weight [4]: No rapid weight loss was observed
